The values below come from US12453769B2 (priority 2019, dated 2025).

For the assay, the system named is gE-specific IFN-γ. More on the design: species or system C57BL/6(N) mice. The conditions noted are these: mouse, in vivo.

Take QS-21: the “induced production level of gE-specific IFN-γ (ELISPOT spot)” value is “the best effect”.
